Results published in publication PMC11750672, “The in vivo metabolic pathway of Deg-AZM and in vitro investigations into the contribution of drug metabolizing enzymes and drug transporters in the drug interactions of Deg-AZM, a clinical-stage new transgelin agonist” (Frontiers in Pharmacology, 2025).

Legend:
[1] = Exposure profiles of Deg-AZM and metabolites in rat plasma, urine, feces and bile (UPLC-QTOF-MS); assay type: in vivo, rats; conditions: / = not detected
Description: The plasma samples at 0.167 h, 0.5 h, 3 h and 8 h after administration were obtained from the study of tissue distribution in rats ([Gu et al., 2024]). Urine, feces and bile samples at 0–24 h after administration were obtained from the excretion study of a single gavage administration of 25 mg/kg Deg-AZM in rats ([Gu et al., 2024]).
Plasma samples were precipitated with methanol at a ratio of 1:3. Urine samples were diluted with 50% methanol at a ratio of 1:80. The feces was thoroughly ground and sonicated with a 50% methanol at a ratio of 1 g/10 mL to obtain the homogenate, then the homogenate were precipitated with methanol at a ratio of 1:1. Bile samples were precipitated with 50% methanol at a ratio of 1:1. The above obtained samples were vortexed for 1 min and centrifugated at 4°C, 12,000 rpm for 10 min. Finally, the upper layer was analyzed using the UPLC-QTOF-MS system.
The metabolites of Deg-AZM in the plasma, urine, feces and bile samples were identified by UPLC-QTOF-MS system. Liquid chromatography was performed on an ACQUITY UPLC^TM I-Class UPLC unit with a Waters ACQUITY UPLC HSS T3 (100 × 2.1 mm, 1.8 µm). A gradient program was employed with the mobile phase combining solvent A (0.02% formic acid in 5% acetonitrile) and solvent B (acetonitrile) as follows: 100% A (0–0.5 min), 100%–85% A (0.5–7 min), 85%–5% A (7–9 min), 5% A (9–12 min), 5%–100% A (12–15 min). The flow rate was 0.40 mL/min. The column temperature was maintained at 40°C.
A Waters Q-TOF Xevo G2-XS Spectrometer equipped with ESI source under positive ion mode was utilized to conduct mass spectrometry detection, for which the MS^E mode was set at the mass range of 100–1,000 Da. The cone voltage was 40 V. The desolvation temperature was set at 500°C and source temperature was 100°C. The desolvation gas flow rate was 800 L/h and the cone gas flow rate was 50 L/h. In MS^E centroid mode, the MS data were acquired with the low energy function in the trap collision energy (6 eV), and the tandem mass data were acquired with the high energy function in the ramp trap collision energy (35–45 eV).
The extraction ion chromatogram of plasma samples at 0.167 h, 0.5 h, 3 h and 8 h after administration of Deg-AZM in rats was shown in Figure 2. The extraction ion chromatogram of urine, feces and bile samples collected from 0 to 24 h after oral administration of Deg-AZM in rats was shown in Figure 3. The AUC0-t of Deg-AZM and its metabolites in plasma sample were calculated by trapezoidal rule based on the chromatographic peak area. 21 metabolites were found in rat plasma, with M0 (Deg-AZM) and metabolite M2 (demethylated) being the main exposure forms in rat plasma. M0 and M2 accounted for 61.6% and 23.0% of the total related substances in rat plasma, respectively. The relative proportions of Deg-AZM and its metabolites in urine, feces and bile samples were evaluated by the chromatographic peak area, as shown in Figure 4. The detailed proportion of Deg-AZM and its metabolites could be found in Supplementary Table S1. M0 and 28 metabolites were found in the urine of rats. […] M0 and 42 metabolites were found in the feces of rats. Metabolite M1-2 (monohydroxylation, 18.1%) and metabolite M2 (16.6%) were the main forms of fecal excretion of Deg-AZM in rats after oral administration. M0 and 38 metabolites were found in the bile samples of rats. Metabolite M1-2 (monohydroxylation, 19.2%) and metabolite M2 (16.5%) were the main forms of biliary excretion of Deg-AZM in rats after oral administration.

[2] = molecular target: T1, CYP1A2 (Homo sapiens, UniProt P05177); test: CYP inhibition in HLMs; assay type: in vitro ADME; conditions: HLM 0.5 mg/mL, probe phenacetin, 20 min
T1 construct: from tissue; host or cells: human liver microsomes
T1 sequence (P05177 1-516): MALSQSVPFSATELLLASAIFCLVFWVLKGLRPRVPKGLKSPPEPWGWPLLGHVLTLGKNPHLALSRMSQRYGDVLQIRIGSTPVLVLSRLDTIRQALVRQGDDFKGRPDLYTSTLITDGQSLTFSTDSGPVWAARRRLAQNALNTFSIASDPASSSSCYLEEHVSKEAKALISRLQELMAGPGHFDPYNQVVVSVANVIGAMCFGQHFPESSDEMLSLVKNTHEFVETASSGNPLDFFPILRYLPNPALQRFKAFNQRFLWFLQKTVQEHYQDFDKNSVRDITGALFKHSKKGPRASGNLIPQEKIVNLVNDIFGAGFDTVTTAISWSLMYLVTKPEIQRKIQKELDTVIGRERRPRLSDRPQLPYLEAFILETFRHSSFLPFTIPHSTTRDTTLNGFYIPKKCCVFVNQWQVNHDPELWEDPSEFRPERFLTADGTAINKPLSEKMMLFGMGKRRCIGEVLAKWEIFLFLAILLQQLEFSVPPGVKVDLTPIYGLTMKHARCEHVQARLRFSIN
Description: (§1) CYP inhibition potential of Deg-AZM was assessed in NADPH-fortified HLMs (0.5 mg/mL for CYP1A2, CYP2B6, CYP2C19 and CYP2D6 system, 0.035 mg/mL for CYP2C9 system, 0.05 mg/mL for CYP3A4 system, and 0.025 mg/mL for CYP2C8 system) using CYP probe substrates (same as the positive controls in HLM phenotyping assays). Deg-AZM in triplicates (0, 0.2, 0.6, 2.0, 6.0, 20, and 60 μM) was treated with each probe of CYP1A2 (20 min), CYP2B6 (20 min), CYP2C8 (10 min), CYP2C9 (60 min), CYP2C19 (45 min), CYP2D6 (30 min) and CYP3A4 (15 min). Probe substrate metabolites were analyzed by LC-MS/MS and the peak area ratios of analytes to internal standard (Indapamide) were calculated. The activity of the CYP450 enzyme subtype is directly proportional to the concentration of the corresponding probe substrate metabolites. The average of the measured values of each group was calculated, the control tube value was set as 100%, the residual probe substrate metabolites was calculated in the presence of positive inhibitors and Deg-AZM at series concentration. IC50 values were calculated by the dose-response model (nonlinear regression) in GraphPad Prism software.

[3] = molecular target: T2, CYP3A4 (Homo sapiens, UniProt P08684); test: CYP inhibition in HLMs; assay type: in vitro ADME; conditions: HLM 0.05 mg/mL, probe midazolam, 15 min
T2 construct: from tissue; host or cells: human liver microsomes
T2 sequence (P08684 whole entry): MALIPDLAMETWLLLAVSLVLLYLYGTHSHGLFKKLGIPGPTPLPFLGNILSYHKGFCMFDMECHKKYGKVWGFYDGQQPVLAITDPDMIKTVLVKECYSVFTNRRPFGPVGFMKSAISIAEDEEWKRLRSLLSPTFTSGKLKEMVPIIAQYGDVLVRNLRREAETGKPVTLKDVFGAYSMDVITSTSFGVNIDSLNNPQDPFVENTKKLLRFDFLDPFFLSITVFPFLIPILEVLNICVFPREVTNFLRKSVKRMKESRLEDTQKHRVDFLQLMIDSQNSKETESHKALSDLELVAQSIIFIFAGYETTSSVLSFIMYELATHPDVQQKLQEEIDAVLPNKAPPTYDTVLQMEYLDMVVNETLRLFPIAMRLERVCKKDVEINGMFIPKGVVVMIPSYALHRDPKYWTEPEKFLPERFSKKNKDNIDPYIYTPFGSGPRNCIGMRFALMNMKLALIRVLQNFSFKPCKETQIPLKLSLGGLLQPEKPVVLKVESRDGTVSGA
Description: as §1

## CCC1OC(=O)C(C)C(O)C(C)C(O)C(C)(O)CC(C)CN(C)C(C)C(O)C1(C)O (stereo not drawn) [Deg-AZM, Deglycosylated azithromycin]
[1]; rat bile 0-24 h, single gavage 25 mg/kg Deg-AZM, by peak area
  Proportion in total related substances, Bile: 7.95%
[1]; rat feces 0-24 h, single gavage 25 mg/kg Deg-AZM, by peak area
  Proportion in total related substances, Feces: 9.12%
[1]; rat plasma 0.167-8 h after oral Deg-AZM, by AUC0-t of chromatographic peak area
  Proportion in total related substances, Plasma: 61.6%
[1]; rat urine 0-24 h, single gavage 25 mg/kg Deg-AZM, by peak area
  Proportion in total related substances, Urine: 62.9%
[2]
  IC50: > 60 µM
[3]
  IC50: > 60 µM
